These results are taken from patent US7531519B2, “Polygalatenosides and use thereof as an antidepressant agent” (Medical and Pharmaceutical Industry Technology and …, priority 2006, dated 2009).

Each structure is given as a SMILES string.

For this assay, the target named is T1, human norepinephrine transporter (Homo sapiens, UniProt P23975).
T1 construct: expressed in transfected cells; host or cells: MDCK (dog kidney) cells, stably transfected; total cell membranes
In words: [125I]RTI-55 membrane binding assay. Conditions: for IC50: membranes of MDCK cells transfected with human NET, 0.2 nM [125I]RTI-55, 4° C., 3 h, read-out: IC50, inhibition of [125I]RTI-55 binding to norepinephrine transporter; for inhibition of [125I]RTI-55 binding to norepinephrine transporter (result in words): qualitative statement. The protocol: Membrane Binding Assay. Membranes from dog kidney MDCK cells, which stably transfected with the human norepinephrine transporter, were used. Total cell membranes were prepared from transfected cells grown to confluence in 500 cm^2 tissue culture dishes. Cells were scraped into centrifuge tube and pelleted at 900 g and 4° C. for 10 min. The pellets were resuspended in modified Tris-HCl buffer (50 mM Tris-HCl, 100 mM NaCl, 1 μM leupetin, 10 μM PMSF; pH 7.4), and centrifuged at 17000 g and 4° C. for 30 min. Then, the pellets were resuspended, homogenized with a glass homogenizer with a Teflon pestle and centrifuged at 17000 g and 4° C. for 90 minutes. Pellets were collected and resuspended in modified Tris-HCl buffer. Protein concentrations were determined using BCA protein assay reagent (Pierce, Rockford). […] The binding was terminated by rapid vacuum filtration over Whatman GF/B filters soaked in 0.3% polyethylineimine followed by three rapid 1 mL washes in ice-cold buffer. Bound radioactivity was measured by gamma emission spectrometry. Non-specific binding was determined in the presence of 10 μM desipramine and was subtracted from the data in the absence of desipramine to yield specific binding.

T1 sequence (P23975 whole entry): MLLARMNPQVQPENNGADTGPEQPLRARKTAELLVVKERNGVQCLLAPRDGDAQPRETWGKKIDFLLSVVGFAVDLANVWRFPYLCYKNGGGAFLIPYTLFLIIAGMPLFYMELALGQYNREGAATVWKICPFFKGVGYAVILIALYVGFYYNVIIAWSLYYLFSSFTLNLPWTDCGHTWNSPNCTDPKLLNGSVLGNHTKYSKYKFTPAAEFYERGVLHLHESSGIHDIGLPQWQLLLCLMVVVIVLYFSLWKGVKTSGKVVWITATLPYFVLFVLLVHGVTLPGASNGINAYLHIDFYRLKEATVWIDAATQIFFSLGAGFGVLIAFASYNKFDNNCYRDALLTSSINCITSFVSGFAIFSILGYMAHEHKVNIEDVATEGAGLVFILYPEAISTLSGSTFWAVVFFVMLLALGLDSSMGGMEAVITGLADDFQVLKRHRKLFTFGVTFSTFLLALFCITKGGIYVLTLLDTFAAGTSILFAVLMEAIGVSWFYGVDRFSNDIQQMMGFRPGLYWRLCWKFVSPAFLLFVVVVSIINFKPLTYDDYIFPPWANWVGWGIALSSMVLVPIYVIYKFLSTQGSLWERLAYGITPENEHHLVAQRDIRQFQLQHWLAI

For the compound `O=C(OCC1OC(OC2COC(CO)C(O)C2O)C(O)C(O)C1O)c1ccccc1` (stereo not drawn) [Compound 1, 6-O-benzoyl polygolitosyl-(2→1)-α-galactose], the IC50 – broadly, the concentration needed to halve the response being measured – is 30 µM and the “inhibition of [125I]RTI-55 binding to norepinephrine transporter (result in words)” value is listed as “more potent than the others”.
For `O=C(OC1C(O)C(CO)OC(OC2COC(CO)C(O)C2O)C1O)c1ccccc1` (stereo not drawn) [Compound 2, 3-O-benzoyl-polygolitosyl-(2→1)-α-galactose], in that order: 6.04 µM and “more potent than the others”.
